# Laboratory results as given in US20250304576A1 (Cancer Research Technology Limited, priority 2022, published 2025).
# Columns and labels:
# Recombinant IKKβ = target: T1, Recombinant IKKβ (Homo sapiens, UniProt O14920); experiment: DELFIA IKKβ kinase assay (apparent Ki, Cheng-Prusoff); assay type: biochemical
# T1 construct: purchased Millipore, Dundee, UK
# T1 sequence (O14920 1-756): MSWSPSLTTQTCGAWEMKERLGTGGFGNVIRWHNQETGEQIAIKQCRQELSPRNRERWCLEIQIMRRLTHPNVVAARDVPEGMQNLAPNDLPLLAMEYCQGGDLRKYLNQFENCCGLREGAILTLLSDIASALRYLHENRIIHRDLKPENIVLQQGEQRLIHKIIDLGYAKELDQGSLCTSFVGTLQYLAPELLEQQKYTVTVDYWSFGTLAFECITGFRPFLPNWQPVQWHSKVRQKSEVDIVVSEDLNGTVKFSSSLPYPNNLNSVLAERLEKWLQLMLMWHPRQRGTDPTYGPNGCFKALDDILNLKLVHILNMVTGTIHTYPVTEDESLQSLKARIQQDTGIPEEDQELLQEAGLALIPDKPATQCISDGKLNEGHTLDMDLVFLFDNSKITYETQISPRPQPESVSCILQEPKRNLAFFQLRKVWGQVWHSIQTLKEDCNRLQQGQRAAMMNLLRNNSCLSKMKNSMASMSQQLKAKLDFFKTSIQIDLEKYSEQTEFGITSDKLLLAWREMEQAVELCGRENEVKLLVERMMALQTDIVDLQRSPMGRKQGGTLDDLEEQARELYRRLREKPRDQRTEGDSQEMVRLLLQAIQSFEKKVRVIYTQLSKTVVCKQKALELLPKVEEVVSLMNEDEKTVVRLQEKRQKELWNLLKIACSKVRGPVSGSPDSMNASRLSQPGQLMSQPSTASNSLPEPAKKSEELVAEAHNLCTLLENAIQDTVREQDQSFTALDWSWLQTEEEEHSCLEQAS
# Method in brief: (§1)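 Recombinant IKKα or IKKβ (37 nM) with 0.375 μM biotinylated IκB-α (Ser32) peptide and 40 μM ATP in 40 mM Tris-HCl pH 7.5, 20 mM MgCl2, 60 min at 30° C. Phospho-substrate captured on streptavidin and detected by anti-phospho-IκB-α plus europium anti-mouse IgG time-resolved fluorescence; apparent Ki via Cheng-Prusoff.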
# Recombinant IKKα = target: T2, Recombinant IKKα (Homo sapiens, UniProt O15111); experiment: DELFIA IKKα kinase assay (apparent Ki, Cheng-Prusoff); assay type: biochemical
# T2 construct: purchased Millipore, Dundee, UK
# T2 sequence (O15111 1-745): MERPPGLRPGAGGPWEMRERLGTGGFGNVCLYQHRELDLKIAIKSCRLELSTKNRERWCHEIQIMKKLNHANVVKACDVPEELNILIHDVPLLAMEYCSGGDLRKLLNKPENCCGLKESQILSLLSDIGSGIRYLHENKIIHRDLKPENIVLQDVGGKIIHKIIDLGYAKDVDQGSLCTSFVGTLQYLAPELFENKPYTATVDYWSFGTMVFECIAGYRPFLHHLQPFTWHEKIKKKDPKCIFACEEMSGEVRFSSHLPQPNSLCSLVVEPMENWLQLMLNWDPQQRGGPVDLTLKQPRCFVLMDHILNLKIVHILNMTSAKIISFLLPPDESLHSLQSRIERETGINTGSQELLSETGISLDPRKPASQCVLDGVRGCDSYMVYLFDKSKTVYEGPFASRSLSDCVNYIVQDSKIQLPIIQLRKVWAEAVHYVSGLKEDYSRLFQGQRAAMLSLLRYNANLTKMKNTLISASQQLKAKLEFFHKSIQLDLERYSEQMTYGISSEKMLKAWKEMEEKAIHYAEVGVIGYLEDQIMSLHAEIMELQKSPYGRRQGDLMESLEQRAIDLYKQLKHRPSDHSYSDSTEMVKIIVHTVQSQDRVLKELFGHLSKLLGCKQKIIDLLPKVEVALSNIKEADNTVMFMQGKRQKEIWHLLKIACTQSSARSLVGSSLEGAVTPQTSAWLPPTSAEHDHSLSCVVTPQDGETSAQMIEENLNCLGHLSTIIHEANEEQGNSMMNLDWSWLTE
# Method in brief: as §1
# [1] = non-italicised figure: DELFIA assay
# [2] = DELFIA assay (first line of an example)
Structure (SMILES),Ki (Recombinant IKKβ; [1]),Ki (Recombinant IKKα; [1]),Ki (Recombinant IKKβ; [2]),Ki (Recombinant IKKα; [2])
"Nc1cc(-c2cc(-c3ccoc3)c3[nH]nc(N)c3c2)ccn1 [Example 129, 5-(2-Aminopyridin-4-yl)-7-(furan-3-yl)-1H-indazol-3-amine]",511 nM,10 nM,–,–
"CC(C)(C)C#Cc1cc(-c2ccnc(N)c2)cc2c(N)n[nH]c12 [Example 137, 5-(2-Aminopyridin-4-yl)-7-(3,3-dimethylbut-1-yn-1-yl)-1H-indazol-3-amine]",1470 nM,53 nM,–,–
"CC(C)(O)C#Cc1cc(-c2ccnc(N)c2)cc2c(N)n[nH]c12 [Example 140, 4-(3-Amino-5-(2-aminopyridin-4-yl)-1H-indazol-7-yl)-2-methylbut-3-yn-2-ol]",3000 nM,281 nM,–,–
"Nc1n[nH]c2ccc(-c3ccnc4[nH]c(C5CC5)cc34)cc12 [Example 218, 5-(2-Cyclopropyl-1H-pyrrolo[2,3-b]pyridin-4-yl)-1H-indazol-3-amine]",–,–,63 nM,5 nM
"CC(C)(C)Cc1cc2c(-c3ccc4[nH]nc(N)c4c3)ccnc2[nH]1 [Example 220, 5-(2-Neopentyl-1H-pyrrolo[2,3-b]pyridin-4-yl)-1H-indazol-3-amine]",–,–,838 nM,58 nM
Nc1n[nH]c2ccc(-c3ccnc4[nH]c(CO)cc34)cc12 [Example 224],–,–,503 nM,5 nM
"CC(C)(C)OCc1cc2c(-c3ccc4[nH]nc(N)c4c3)ccnc2[nH]1 [Example 227, 5-(2-(tert-Butoxymethyl)-1H-pyrrolo[2,3-b]pyridin-4-yl)-1H-indazol-3-amine]",–,–,754 nM,29 nM
"Nc1n[nH]c2ccc(-c3ccnc4[nH]c(C5CCOCC5)cc34)cc12 [Example 228, 5-(2-(tetrahydro-2H-pyran-4-yl)-1H-pyrrolo[2,3-b]pyridin-4-yl)-1H-indazol-3-amine]",–,–,97 nM,12 nM
"Nc1n[nH]c2ccc(-c3ccnc4[nH]c(CC5CCOCC5)cc34)cc12 [Example 230, 5-(2-((tetrahydro-2H-pyran-4-yl)methyl)-1H-pyrrolo[2,3-b]pyridin-4-yl)-1H-indazol-3-amine]",–,–,260 nM,11 nM
"Nc1n[nH]c2ccc(-c3ccnc4[nH]c(C(=O)N5CCCC5)cc34)cc12 [Example 234, (4-(3-Amino-1H-indazol-5-yl)-1H-pyrrolo[2,3-b]pyridin-2-yl)(pyrrolidin-1-yl)methanone]",–,–,272 nM,19 nM
"CN1CCN(C(=O)c2cc3c(-c4ccc5[nH]nc(N)c5c4)ccnc3[nH]2)CC1 [Example 243, (4-(3-Amino-1H-indazol-5-yl)-1H-pyrrolo[2,3-b]pyridin-2-yl)(4-methylpiperazin-1-yl)methanone]",–,–,1030 nM,72 nM
"CC(C)(C)NCc1cc2c(-c3ccc4[nH]nc(N)c4c3)ccnc2[nH]1 [Example 248, 5-(2-((tert-Butylamino)methyl)-1H-pyrrolo[2,3-b]pyridine-4-yl)-1H-indazol-3-amine]",–,–,4020 nM,202 nM
"CN(C)CCCNCc1cc2c(-c3ccc4[nH]nc(N)c4c3)ccnc2[nH]1 [Example 258, N^1-((4-(3-amino-1H-indazol-5-yl)-1H-pyrrolo[2,3-b]pyridin-2-yl)methyl)-N^3,N^3-dimethylpropane-1,3-diamine]",–,–,1130 nM,16 nM
"CC(C)N(C)Cc1cc2c(-c3ccc4[nH]nc(N)c4c3)ccnc2[nH]1 [Example 259, 5-(2-((Isopropyl(methyl)amino)methyl)-1H-pyrrolo[2,3-b]pyridine-4-yl)-1H-indazol-3-amine]",–,–,2140 nM,110 nM

# The next lines start with the values.
Ki (Recombinant IKKβ; [1]),Ki (Recombinant IKKα; [1]),Ki (Recombinant IKKβ; [2]),Ki (Recombinant IKKα; [2]),Structure (SMILES)
–,–,137 nM,26 nM,"C#Cc1cc(-c2ccnc3[nH]ccc23)cc2c(N)n[nH]c12 [Example 200, 7-Ethynyl-5-(1H-pyrrolo[2,3-b]pyridin-4-yl)-1H-indazol-3-amine]"
–,–,1390 nM,62 nM,"CC(C)(C)C#Cc1cc(-c2ccnc3[nH]ccc23)cc2c(N)n[nH]c12 [Example 201, 7-(3,3-Dimethylbut-1-yn-1-yl)-5-(1H-pyrrolo[2,3-b]pyridin-4-yl)-1H-indazol-3-amine]"
–,–,181 nM,13 nM,"Nc1n[nH]c2c(C#CC3CC3)cc(-c3ccnc4[nH]ccc34)cc12 [Example 202, 7-(Cyclopropylethynyl)-5-(1H-pyrrolo[2,3-b]pyridin-4-yl)-1H-indazol-3-amine]"
–,–,452 nM,26 nM,"Nc1n[nH]c2c(C#CC3CCCC3)cc(-c3ccnc4[nH]ccc34)cc12 [Example 203, 7-(Cyclopentylethynyl)-5-(1H-pyrrolo[2,3-b]pyridin-4-yl)-1H-indazol-3-amine]"
–,–,1180 nM,169 nM,"Nc1n[nH]c2c(C#CC3CCCCC3)cc(-c3ccnc4[nH]ccc34)cc12 [Example 204, 7-(Cyclohexylethynyl)-5-(1H-pyrrolo[2,3-b]pyridin-4-yl)-1H-indazol-3-amine]"
–,–,1520 nM,81 nM,"CC(C)(O)C#Cc1cc(-c2ccnc3[nH]ccc23)cc2c(N)n[nH]c12 [Example 206, 4-(3-Amino-5-(1H-pyrrolo[2,3-b]pyridin-4-yl)-1H-indazol-7-yl)-2-methylbut-3-yn-2-ol]"
–,–,3100 nM,23 nM,"Nc1n[nH]c2c(C#CCCCN3CCOCC3)cc(-c3ccnc4[nH]ccc34)cc12 [Example 210, 7-(5-Morpholinopent-1-yn-1-yl)-5-(1H-pyrrolo[2,3-b]pyridin-4-yl)-1H-indazol-3-amine]"
–,–,2370 nM,30 nM,"Nc1n[nH]c2c(C#CCCCN3CCCCC3)cc(-c3ccnc4[nH]ccc34)cc12 [Example 212, 7-(5-(Piperidin-1-yl)pent-1-yn-1-yl)-5-(1H-pyrrolo[2,3-b]pyridin-4-yl)-1H-indazol-3-amine]"
–,–,461 nM,42 nM,"Nc1n[nH]c2ccc(-c3ccnc4[nH]c(C5CCCCC5)cc34)cc12 [Example 219, 5-(2-Cyclohexyl-1H-pyrrolo[2,3-b]pyridin-4-yl)-1H-indazol-3-amine]"
–,–,461 nM,38 nM,"Nc1n[nH]c2ccc(-c3ccnc4[nH]c(CC5CCCCC5)cc34)cc12 [Example 221, 5-(2-(Cyclohexylmethyl)-1H-pyrrolo[2,3-b]pyridin-4-yl)-1H-indazol-3-amine]"
–,–,134 nM,19 nM,"Nc1n[nH]c2ccc(-c3ccnc4[nH]c(CCC5CCCCC5)cc34)cc12 [Example 222, 5-(2-(2-Cyclohexylethyl)-1H-pyrrolo[2,3-b]pyridin-4-yl)-1H-indazol-3-amine]"
–,–,272 nM,27 nM,"Nc1n[nH]c2ccc(-c3ccnc4[nH]c(C5CCCCO5)cc34)cc12 (stereo not shown) [Example 229, 5-(2-(Tetrahydro-2H-pyran-2-yl)-1H-pyrrolo[2,3-b]pyridin-4-yl)-1H-indazol-3-amine]"
–,–,79 nM,10 nM,"Nc1n[nH]c2ccc(-c3ccnc4[nH]c(C(=O)NC5CCCCC5)cc34)cc12 [Example 236, 4-(3-Amino-1H-indazol-5-yl)-N-cyclohexyl-1H-pyrrolo[2,3-b]pyridine-2-carboxamide]"
–,–,> 10000 nM,380 nM,"Nc1n[nH]c2ccc(-c3ccnc4[nH]c(C5CCCCN5)cc34)cc12 (stereo not shown) [Example 250, 5-(2-(Piperidin-2-yl)-1H-pyrrolo[2,3-b]pyridine-4-yl)-1H-indazol-3-amine]"
–,–,1300 nM,74 nM,"Nc1n[nH]c2ccc(-c3ccnc4[nH]c(CNC5CCCCC5)cc34)cc12 [Example 251, 5-(2-((cyclohexylamino)methyl)-1H-pyrrolo[2,3-b]339yridine-4-yl)-1H-indazol-3-amine]"
